53 compounds from PMC5733478, “A Non-imaging High Throughput Approach to Chemical Library Screening at the Unmodified Adenosine-A3 Receptor in Living Cells” (Frontiers in Pharmacology, 2017) can be followed below.

Where a name gives a salt, the structure may show the parent alone. Read-outs that look alike come from different tables or passages of the source.

Test [1] concerns the target T1, human A3AR (Homo sapiens, UniProt P0DMS8).
T1 construct: expressed in transfected cells
T1 sequence (P0DMS8 1-318): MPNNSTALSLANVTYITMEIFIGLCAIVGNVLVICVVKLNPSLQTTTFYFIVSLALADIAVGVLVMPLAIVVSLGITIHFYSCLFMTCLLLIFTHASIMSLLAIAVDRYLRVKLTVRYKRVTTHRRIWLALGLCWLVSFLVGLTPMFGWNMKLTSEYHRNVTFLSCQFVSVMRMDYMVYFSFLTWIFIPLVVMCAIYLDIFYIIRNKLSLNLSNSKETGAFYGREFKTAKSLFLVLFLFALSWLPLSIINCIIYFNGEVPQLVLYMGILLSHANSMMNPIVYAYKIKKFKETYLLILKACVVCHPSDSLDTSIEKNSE
The test can be described thus: HTS (PHERAstar FS) fluorescent ligand competition binding in live CHO cells, 25 nM CA200645 tracer. The note with it: secondary screen of top ten hits, highest concentration 10 μM, affinity not determinable. As to the method:
CHO cells stably expressing the A3AR, A1AR, β1AR or β2AR were seeded into the central 60 wells (for high content confocal analysis) or every well (high throughput analysis) of a 96-well clear-bottomed, black-walled plate (Greiner BioOne) and grown to confluency. […] Cells were incubated for 1h at 37°C/5% CO2. Buffer was then removed from each well, cells washed once in HBSS and fresh HBSS added at room temperature. Plates were then immediately subjected to high content or HTS analysis as detailed below.
High throughput analysis was performed using a PHERAstar FS plate reader (BMG Technologies). […] Optimal focal height was determined automatically and total fluorescence intensity was assessed by taking 81 reads per well.
Competition binding curves were fitted to the following equation using GraphPad Prism 5 (GraphPad Software): […]
where [L] is the concentration and KD is the equilibrium dissociation constant of the fluorescent ligand.

Test [2] has as its target T1, human A3AR. Briefly: LOPAC library primary screen: single concentration (10 μM) inhibition of 25 nM CA200645 binding, PHERAstar FS.
The mark [3] stands for this setting: % of control wells (1% DMSO and 25 nM CA200645), compounds at 10 µM, whole live cells expressing the A3AR, mean ± SD, three experiments in duplicate.

`O=C1Cc2c([nH]c3ccc(Br)cc23)-c2ccccc2N1` [kenpaullone, reference compound]: in test [1], the “displacement of CA200645 binding at the A3AR in full inhibition curves” value is on record as “only displaced the binding of CA200645 at the highest concentration tested”. Besides, in test [2], the “% 25 nM CA200645 binding” value turned out to be 30.6 ± 6.6%.
In the case of `O=c1c(O)c(-c2ccc(O)c(O)c2)oc2cc(O)cc(O)c12` [quercetin], the “displacement of CA200645 binding at the A3AR in full inhibition curves” value in test [1] is listed as “only displaced the binding of CA200645 at the highest concentration tested”.
In the case of `CC1CN(S(=O)(=O)c2cccc3cnccc23)CCN1.Cl.Cl` (stereo not drawn), the “% 25 nM CA200645 binding” value in test [2] came to 95.4 ± 14.7%.
On the same count and under the same terms, as for `Cl.N[C@@H](Cc1cnc[nH]1)C(=O)O` [L-Histidine hydrochloride], the figure is 100.4 ± 6.4%.
As for `COCc1nc2c([nH]1)c(=O)n(C)c(=O)n2CC(C)C`, the “% 25 nM CA200645 binding” value in test [2] is listed as 99.2 ± 10.1%.
The same measure, in the same setting: as for `CC1=C(C(=O)O)N2C(=O)[C@@H](NC(=O)[C@H](N)c3ccccc3)[C@H]2SC1.O` [Cephalexin hydrate], the figure is 101.0 ± 8.0%; as for `CC(C)(C(=O)O)c1ccc(C(O)CCCN2CCC(C(O)(c3ccccc3)c3ccccc3)CC2)cc1` (stereo not drawn) [Fexofenadine hydrochloride], 93.9 ± 3.6%; as for `C=C1C[C@@]23CC[C@H]4[C@@](C)(CCC[C@@]4(C)C(=O)O[C@@H]4O[C@H](CO)[C@@H](O)[C@H](O)[C@H]4O)[C@@H]2CC[C@]1(O[C@@H]1O[C@H](CO)[C@@H](O)[C@H](O)[C@H]1O[C@@H]1O[C@H](CO)[C@@H](O)[C@H](O)[C@H]1O)C3` [Stevioside], 92.4 ± 13.9%.
Same read-out and setting: the same measure for `CS(=O)(=O)O.Cn1cc(C(F)(F)F)nc1-c1ccc(OCC(O)CNCCOc2ccc(O)c(C(N)=O)c2)cc1` (stereo not drawn) [CGP 20712A methanesulfonate]: 106.4 ± 13.7%; for `O=C(O)/C=C\C(=O)O.O=[N+]([O-])c1ccc2nc(N3CCNCC3)ccc2c1` [Quipazine, 6-nitro-, maleate]: 100.0 ± 4.7%; for `N=C(N)c1ccccc1` [Benzamidine hydrochloride]: 90.8 ± 8.3%.
On the same count and under the same terms, the same measure for `O=C[C@H](Cl)[C@@H](O)[C@H](O)[C@H](O)CO` [2-Chloro-2-deoxy-D-glucose]: 89.9 ± 5.0%; for `COC(=O)C1=C(C)NC(C)=C(C(=O)OC(C)(C)CN(C)CCC(c2ccccc2)c2ccccc2)C1c1cccc([N+](=O)[O-])c1.COC(=O)C1=C(C)NC(C)=C(C(=O)OC(C)(C)CN(C)CCC(c2ccccc2)c2ccccc2)C1c1cccc([N+](=O)[O-])c1.Cl.Cl.O` (stereo not drawn) [Lercanidipine hydrochloride hemihydrate]: 82.9 ± 16.7%; for `OC[C@H]1O[C@@H](n2cnc3c(NC4CCCC4)ncnc32)[C@H](O)[C@@H]1O` [N6-Cyclopentyladenosine]: 69.6 ± 6.1%.
For the compound `Cc1ccccc1/C=C/C1=NCCN1` [Metrazoline oxalate], the “% 25 nM CA200645 binding” value in test [2] (setting [3]) is on record as 97.1 ± 2.0%.
As for `CCC(=O)N1CCN(C(=O)c2ccccc2)CC1` [DM 235], the “% 25 nM CA200645 binding” value in test [2] is listed as 105.1 ± 10.7%.
The same measure, in the same setting: the same measure for `COc1ccc(/C=C/c2nc(NCCCN(C)C)c3ccccc3n2)cc1.Cl.Cl.O` [CP-31398 dihydrochloride hydrate]: 111.8 ± 1.4%; for `N#CCCN.N#CCCN.O=C(O)/C=C/C(=O)O` [3-Aminopropionitrile fumarate]: 91.9 ± 6.3%.
The same measure, in the same setting: the same measure for `Nc1ccc2c3c(cccc13)C(=O)NC2=O` [4-Amino-1,8-naphthalimide]: 95.4 ± 12.1%; for `NC(Cc1cc(O)c(O)cc1O)C(=O)O` (racemic) [6-Hydroxy-DL-DOPA]: 69.7 ± 9.9%.
On the same count and under the same terms, as for `NCCc1c[nH]c2ccc(C(N)=O)cc12.O=C(O)/C=C\C(=O)O` [5-Carboxamidotryptamine maleate], the figure is 85.7 ± 14.5%; as for `Cl.NCCNS(=O)(=O)c1cccc2c(Cl)cccc12` [A3 hydrochloride], 95.5 ± 8.6%.
Regarding `N[C@@H](Cc1c[nH]c2ccc(O)cc12)C(=O)O` [5-Hydroxy-L-tryptophan], the “% 25 nM CA200645 binding” value in test [2] turned out to be 97.7 ± 1.5%.
For the compound `C=C1C[C@@]23CC[C@H]4[C@@](C)(CCC[C@@]4(C)C(=O)O)[C@@H]2CC[C@]1(O)C3` [Steviol], the “% 25 nM CA200645 binding” value in test [2] worked out at 95.9 ± 19.9%.
On the same count and under the same terms, the same measure for `CCCN(CCC)C1Cc2cc(OC)c(OC)cc2C1.O=C(O)/C=C\C(=O)O` [U-99194A maleate]: 101.3 ± 8.9%; for `N.N.O=C([O-])C1(C(=O)[O-])CCC1.[Pt+2]` [Carboplatin]: 97.7 ± 5.9%.
On the same count and under the same terms, the same measure for `C[C@H](Cc1ccccc1)Nc1ncnc2c1ncn2[C@@H]1O[C@H](CO)[C@@H](O)[C@H]1O` [R(-)-N6-(2-Phenylisopropyl)adenosine]: 69.2 ± 26.4%; for `COCC(=O)O[C@]1(CCN(C)CCCc2nc3ccccc3[nH]2)CCc2cc(F)ccc2[C@@H]1C(C)C` [Mibefradil dihydrochloride]: 107.6 ± 26.6%.
In the case of `CCOC(=O)C(C)Oc1cccc2c(=O)n(CC(=O)Nc3ccc4c(c3)OCCO4)ccc12` (stereo not drawn) [SID7969543], the “% 25 nM CA200645 binding” value in test [2] came out at 94.8 ± 24.3%.
Still for that read-out and setting: the same measure for `Cl.Clc1cc(I)cc(Cl)c1NC1=NCCN1` [p-Iodoclonidine hydrochloride]: 77.2 ± 42.2%; for `COc1ccc2[nH]c3c(c2c1)CCNC3`: 93.4 ± 1.1%.
On the same count and under the same terms, the same measure for `Clc1ccc(C(c2ccccc2Cl)C(Cl)Cl)cc1` (stereo not drawn): 87.8 ± 23.1%.
On the same count and under the same terms, the same measure for `NCC(CC(=O)O)c1ccc(Cl)cc1` (racemic) [(±)-Baclofen]: 99.6 ± 6.9%.
As to `CCCCCCCC/C=C\CCCCCCCC(=O)NCc1ccc(O)c(OC)c1` [Olvanil], the “% 25 nM CA200645 binding” value in test [2] is listed as 76.7 ± 2.8%.
The same measure, in the same setting: as for `CCCn1c(=O)c(C)cn2nc(N)nc12` [ICI 63,137], the figure is 93.4 ± 5.4%; as for `COc1cc2c(CCNC(C)=O)c[nH]c2cc1Cl` [6-Chloromelatonin], 92.8 ± 24.3%; as for `Nc1cc(N2CCCCC2)nc(N)[n+]1[O-]` [Minoxidil], 96.7 ± 6.2%.
Same read-out and setting: as for `Cc1cc(NC2CCCCC2)nc(-n2nc(C)cc2C)n1` [CyPPA], the figure is 68.8 ± 15.9%; as for `Cl.OCc1c[nH]cn1` [4-Imidazolemethanol hydrochloride], 101.5 ± 8.2%; as for `NC[C@@H]1O[C@H](O[C@H]2[C@@H](O)[C@H](O[C@@H]3[C@@H](O)[C@H](N)C[C@H](N)[C@H]3O[C@H]3O[C@H](CO)[C@@H](O)[C@H](O)[C@H]3N)O[C@@H]2CO)[C@H](N)[C@@H](O)[C@@H]1O` [Paromomycin sulfate], 106.3 ± 7.8%.
In the case of `Br.Oc1cc2c(c(Cl)c1O)CCNCC2c1ccccc1` (racemic) [(±)-6-Chloro-PB hydrobromide], the “% 25 nM CA200645 binding” value in test [2] is reported as 99.3 ± 4.1%.
As for `S=C([S-])OC1CC2CC1C1CCCC21.[K+]` [D-609 potassium], in test [2], the “% 25 nM CA200645 binding” value is listed as 95.5 ± 4.1%.
On the same count and under the same terms, the same measure for `COc1ccc(-c2cc3nccn3c(Nc3ncccc3C(N)=O)n2)cc1OC.Cl.O` [BAY 61-3606 hydrochloride hydrate]: 83.8 ± 10.8%.
For `Cc1nc2c([nH]1)c(=O)n(C)c(=O)n2Cc1ccco1` [Furafylline], the “% 25 nM CA200645 binding” value in test [2] (setting [3]) is reported as 49.5± 5.8%.
Regarding `CSc1ccc2c(c1)N(CCC1CCCCN1C)c1ccccc1S2` (stereo not drawn) [Thioridazine hydrochloride], the “% 25 nM CA200645 binding” value in test [2] worked out at 102.5 ± 9.6%.
`CC[C@@]1(O)C(=O)OCc2c1cc1n(c2=O)Cc2cc3c(CN(C)C)c(O)ccc3nc2-1.Cl.O` [Topotecan hydrochloride hydrate]: the “% 25 nM CA200645 binding” value in test [2] turned out to be 102.0 ± 7.8%.
The same measure, in the same setting: the same measure for `N#C/C(=C\c1ccc(-c2cc(Cl)ccc2Cl)o1)C(=O)Nc1cccc2ncccc12` [AGK2]: 35.8 ± 5.6%.
Take `c1ccc2c(c1)CC(N1CCN(c3cccc4c3OCCO4)CC1)C2` [S15535]: the “% 25 nM CA200645 binding” value in test [2] was 97.0 ± 1.3%.
On the same count and under the same terms, as for `N#Cc1cc([N+](=O)[O-])c2sc(C(N)=O)[n+]([O-])c2c1` [BTO-1], the figure is 99.9 ± 23.7%.
Take `NC(=O)c1cc(N2CC2)c([N+](=O)[O-])cc1[N+](=O)[O-]` [CB 1954]: the “% 25 nM CA200645 binding” value in test [2] (compounds tested at 10 µM, % of control wells (1% DMSO and 25 nM CA200645), whole live cells expressing the A3AR, mean ± SD, three experiments in duplicate) is given as 93.7 ± 2.8%.
Turning to `COc1ccc2c(c1O)-c1cccc3c1[C@@H](C2)N(C)CC3.Cl` [R(-)-Apocodeine hydrochloride], in test [2], the “% 25 nM CA200645 binding” value came out at 70.5 ± 34.0%.
Same read-out and setting: as for `O=C(O)/C(=C/c1c(C(=O)O)[nH]c2cc(Cl)cc(Cl)c12)c1ccccc1` [MDL 105,519], the figure is 101.6 ± 19.9%; as for `CN1CC(=O)NC1=NC(=O)Nc1cccc(Cl)c1` [Fenobam], 81.9 ± 15.0%.
